Source: patent publication US20130338106A1, “COMPOUNDS INHIBITING LEUCINE-RICH REPEAT KINASE ENZYME ACTIVITY” (priority 2011, published 2013)
pIC50: −log10 of the molar value. Read-outs that look alike come from different tables or passages of the source.

Key:
Assay type in all cases: biochemical
[1] = target: T1, P38G (Homo sapiens, UniProt P53778); test: ProfilerPro Kinase Selectivity, P38G; conditions: tested at 10 uM, read-out: percent inhibition of the kinase activity
T1 construct: purchased Caliper LifeSciences
Procedure: (§1) Kinome selectivity profiling was performed using two example compounds according to the manufacturer's instructions using Caliper LifeSciences' ProfilerPro Kinase Selectivity Assay Kits. Compounds prepared in Examples 1 and 7 were tested at 10 uM and data were recorded using the Caliper LabChip® EZ Reader™. Each compounds' percent inhibition of the kinase activity measured in this manner is reported in the following lists.

[2] = target: T2, HGK (Homo sapiens, UniProt O95819); test: ProfilerPro Kinase Selectivity, HGK; conditions: tested at 10 uM, read-out: percent inhibition of the kinase activity
T2 construct: purchased Caliper LifeSciences
Procedure: as §1

[3] = target: T3, C-TAK1 (Homo sapiens, UniProt P27448); test: ProfilerPro Kinase Selectivity, C-TAK1; conditions: tested at 10 uM, read-out: percent inhibition of the kinase activity
T3 construct: purchased Caliper LifeSciences
Procedure: as §1

[4] = target: T4, MST2 (Homo sapiens, UniProt Q13188); test: ProfilerPro Kinase Selectivity, MST2; conditions: tested at 10 uM, read-out: percent inhibition of the kinase activity
T4 construct: purchased Caliper LifeSciences
Procedure: as §1

[5] = target: T5, YES (Homo sapiens, UniProt P07947); test: ProfilerPro Kinase Selectivity, YES; conditions: tested at 10 uM, read-out: percent inhibition of the kinase activity
T5 construct: purchased Caliper LifeSciences
Procedure: as §1

[6] = target: T6, EPHA1 (Homo sapiens, UniProt P21709); test: ProfilerPro Kinase Selectivity, EPHA1; conditions: tested at 10 uM, read-out: percent inhibition of the kinase activity
T6 construct: purchased Caliper LifeSciences
Procedure: as §1

[7] = target: T7, MELK (Homo sapiens, UniProt Q14680); test: ProfilerPro Kinase Selectivity, MELK; conditions: tested at 10 uM, read-out: percent inhibition of the kinase activity
T7 construct: purchased Caliper LifeSciences
Procedure: as §1

[8] = target: T8, PKG1A (Homo sapiens, UniProt Q13976); test: ProfilerPro Kinase Selectivity, PKG1A; conditions: tested at 10 uM, read-out: percent inhibition of the kinase activity
T8 construct: purchased Caliper LifeSciences
Procedure: as §1

[9] = target: T9, FLT-3 D835Y (Homo sapiens, UniProt P36888, D835Y); test: ProfilerPro Kinase Selectivity, FLT-3 D835Y; conditions: tested at 10 uM, read-out: percent inhibition of the kinase activity
T9 construct: purchased Caliper LifeSciences
Procedure: as §1

[10] = target: T10, LRRK2 (G2019S) (Homo sapiens, UniProt Q5S007, G2019S); test: ProfilerPro Kinase Selectivity, LRRK2 (G2019S); conditions: read-out: percent inhibition of the kinase activity
T10 construct: purchased Caliper LifeSciences
Procedure: as §1, with “Reader™.” for “Reader™. Each compounds' percent inhibition of the kinase activity measured in this manner is reported in the following lists.”

[11] = target: T11, NUAK1 (Homo sapiens, UniProt O60285); test: ProfilerPro Kinase Selectivity, NUAK1; conditions: tested at 10 uM, read-out: percent inhibition of the kinase activity
T11 construct: purchased Caliper LifeSciences
Procedure: as §1

[12] = target: T12, HER4 (Homo sapiens, UniProt Q15303); test: ProfilerPro Kinase Selectivity, HER4; conditions: tested at 10 uM, read-out: percent inhibition of the kinase activity
T12 construct: purchased Caliper LifeSciences
Procedure: as §1

[13] = target: T13, NEK1 (Homo sapiens, UniProt Q96PY6); test: ProfilerPro Kinase Selectivity, NEK1; conditions: tested at 10 uM, read-out: percent inhibition of the kinase activity
T13 construct: purchased Caliper LifeSciences
Procedure: as §1

[14] = target: T14, CAMK1A (Homo sapiens, UniProt Q14012); test: ProfilerPro Kinase Selectivity, CAMK1A; conditions: tested at 10 uM, read-out: percent inhibition of the kinase activity
T14 construct: purchased Caliper LifeSciences
Procedure: as §1

[15] = target: T15, DAPK1 (Homo sapiens, UniProt P53355); test: ProfilerPro Kinase Selectivity, DAPK1; conditions: tested at 10 uM, read-out: percent inhibition of the kinase activity
T15 construct: purchased Caliper LifeSciences
Procedure: as §1

[16] = target: T16, EGFR (Homo sapiens, UniProt P00533); test: ProfilerPro Kinase Selectivity, EGFR; conditions: tested at 10 uM, read-out: percent inhibition of the kinase activity
T16 construct: purchased Caliper LifeSciences
Procedure: as §1

[17] = target: T17, TXK (Homo sapiens, UniProt P42681); test: ProfilerPro Kinase Selectivity, TXK; conditions: tested at 10 uM, read-out: percent inhibition of the kinase activity
T17 construct: purchased Caliper LifeSciences
Procedure: as §1

[18] = target: T18, EPHA4 (Homo sapiens, UniProt P54764); test: ProfilerPro Kinase Selectivity, EPHA4; conditions: tested at 10 uM, read-out: percent inhibition of the kinase activity
T18 construct: purchased Caliper LifeSciences
Procedure: as §1

[19] = target: T19, MAPKAPK3 (Homo sapiens, UniProt Q16644); test: ProfilerPro Kinase Selectivity, MAPKAPK3; conditions: tested at 10 uM, read-out: percent inhibition of the kinase activity
T19 construct: purchased Caliper LifeSciences
Procedure: as §1

[20] = target: T20, RSK1 (Homo sapiens, UniProt Q15418); test: ProfilerPro Kinase Selectivity, RSK1; conditions: tested at 10 uM, read-out: percent inhibition of the kinase activity
T20 construct: purchased Caliper LifeSciences
Procedure: as §1

[21] = target: T21, CDK5/P25 (Homo sapiens, UniProt Q00535); test: ProfilerPro Kinase Selectivity, CDK5/P25; conditions: tested at 10 uM, read-out: percent inhibition of the kinase activity
T21 construct: purchased Caliper LifeSciences
Procedure: as §1

[22] = target: T22, SGK (Homo sapiens, UniProt O00141); test: ProfilerPro Kinase Selectivity, SGK; conditions: tested at 10 uM, read-out: percent inhibition of the kinase activity
T22 construct: purchased Caliper LifeSciences
Procedure: as §1

[23] = target: T23, ZIPK (Homo sapiens, UniProt O43293); test: ProfilerPro Kinase Selectivity, ZIPK; conditions: tested at 10 uM, read-out: percent inhibition of the kinase activity
T23 construct: purchased Caliper LifeSciences
Procedure: as §1

[24] = target: T24, LRRK2 G2019S mutant kinase (Homo sapiens, UniProt Q5S007, G2019S); test: LRRK2 G2019S LanthaScreen TR-FRET kinase assay; conditions: LRRK2 G2019S GST-tagged protein, 100 μM ATP, LRRKtide substrate; read-out: IC50 (potency)
T24 construct: GST; purchased Invitrogen PV4882
Summary of the method: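 GST-tagged enzyme with 75 nM fluorescein-ERM (LRRKtide) substrate, 100 μM ATP, 2 mM DTT, 1% DMSO final; 1 h at room temperature. Stopped with EDTA and Tb-anti-pERM antibody, 30 min, then TR-FRET read (ex 340, em 520/495 nm); IC50 and maximal inhibition derived.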

[25] = target: T25, PIM-3 (Homo sapiens, UniProt Q86V86); test: ProfilerPro Kinase Selectivity, PIM-3; conditions: tested at 10 uM, read-out: percent inhibition of the kinase activity
T25 construct: purchased Caliper LifeSciences
Procedure: as §1

[26] = target: T26, PAK2 (Homo sapiens, UniProt Q13177); test: ProfilerPro Kinase Selectivity, PAK2; conditions: tested at 10 uM, read-out: percent inhibition of the kinase activity
T26 construct: purchased Caliper LifeSciences
Procedure: as §1

[27] = target: T27, ERK1 (Homo sapiens, UniProt P27361); test: ProfilerPro Kinase Selectivity, ERK1; conditions: tested at 10 uM, read-out: percent inhibition of the kinase activity
T27 construct: purchased Caliper LifeSciences
Procedure: as §1

T14 sequence (Q14012 whole entry): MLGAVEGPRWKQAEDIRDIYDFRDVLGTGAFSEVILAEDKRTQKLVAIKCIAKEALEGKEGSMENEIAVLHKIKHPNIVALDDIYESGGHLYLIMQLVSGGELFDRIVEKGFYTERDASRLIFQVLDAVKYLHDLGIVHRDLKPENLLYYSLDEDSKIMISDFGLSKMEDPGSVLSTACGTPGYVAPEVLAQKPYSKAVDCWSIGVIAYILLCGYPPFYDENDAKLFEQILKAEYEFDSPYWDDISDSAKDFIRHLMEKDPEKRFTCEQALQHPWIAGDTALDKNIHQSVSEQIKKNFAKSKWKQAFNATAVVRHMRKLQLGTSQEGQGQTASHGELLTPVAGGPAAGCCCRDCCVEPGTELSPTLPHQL
T11 sequence (O60285 whole entry, species assumed): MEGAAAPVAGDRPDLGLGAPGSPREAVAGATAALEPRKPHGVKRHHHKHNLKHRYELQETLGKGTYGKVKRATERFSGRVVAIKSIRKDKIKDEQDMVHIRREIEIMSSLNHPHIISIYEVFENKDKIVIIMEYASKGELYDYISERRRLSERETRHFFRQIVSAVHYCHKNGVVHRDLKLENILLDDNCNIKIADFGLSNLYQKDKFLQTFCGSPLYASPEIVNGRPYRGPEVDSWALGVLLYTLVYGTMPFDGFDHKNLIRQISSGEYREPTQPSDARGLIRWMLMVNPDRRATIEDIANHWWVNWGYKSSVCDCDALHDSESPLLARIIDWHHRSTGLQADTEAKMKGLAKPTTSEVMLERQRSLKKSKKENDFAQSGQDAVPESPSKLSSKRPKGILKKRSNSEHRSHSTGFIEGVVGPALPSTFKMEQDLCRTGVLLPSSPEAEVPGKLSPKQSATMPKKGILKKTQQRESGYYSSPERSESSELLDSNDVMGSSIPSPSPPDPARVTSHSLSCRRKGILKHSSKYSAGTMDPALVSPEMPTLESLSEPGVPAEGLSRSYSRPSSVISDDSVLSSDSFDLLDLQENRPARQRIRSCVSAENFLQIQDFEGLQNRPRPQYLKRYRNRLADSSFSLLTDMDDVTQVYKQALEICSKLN
T18 sequence (P54764 20-986, species assumed): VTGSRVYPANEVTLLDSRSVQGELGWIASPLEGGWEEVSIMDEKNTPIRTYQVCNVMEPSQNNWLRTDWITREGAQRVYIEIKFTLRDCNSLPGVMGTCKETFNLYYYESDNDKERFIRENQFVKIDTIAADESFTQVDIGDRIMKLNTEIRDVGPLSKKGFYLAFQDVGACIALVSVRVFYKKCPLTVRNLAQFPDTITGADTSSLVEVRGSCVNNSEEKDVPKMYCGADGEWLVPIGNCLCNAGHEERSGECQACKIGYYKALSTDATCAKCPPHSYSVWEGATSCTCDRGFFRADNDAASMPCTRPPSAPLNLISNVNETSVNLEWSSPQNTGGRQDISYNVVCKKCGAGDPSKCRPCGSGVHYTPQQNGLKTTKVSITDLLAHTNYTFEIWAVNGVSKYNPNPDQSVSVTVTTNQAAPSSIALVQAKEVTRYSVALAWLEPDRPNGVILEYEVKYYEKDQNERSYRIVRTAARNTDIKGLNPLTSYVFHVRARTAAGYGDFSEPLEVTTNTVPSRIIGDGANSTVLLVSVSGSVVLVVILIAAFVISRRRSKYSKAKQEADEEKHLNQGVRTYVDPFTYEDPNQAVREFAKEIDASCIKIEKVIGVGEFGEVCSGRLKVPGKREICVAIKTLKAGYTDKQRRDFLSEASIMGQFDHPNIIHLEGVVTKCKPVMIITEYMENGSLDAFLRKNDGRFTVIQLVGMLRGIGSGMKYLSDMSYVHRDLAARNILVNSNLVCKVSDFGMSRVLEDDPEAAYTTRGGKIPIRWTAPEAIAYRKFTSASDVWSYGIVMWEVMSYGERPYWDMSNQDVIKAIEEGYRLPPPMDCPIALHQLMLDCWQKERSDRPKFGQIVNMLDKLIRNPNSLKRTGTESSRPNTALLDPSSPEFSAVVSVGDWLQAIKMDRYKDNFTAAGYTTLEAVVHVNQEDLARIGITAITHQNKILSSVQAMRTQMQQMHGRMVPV
T2 sequence (O95819 whole entry, species assumed): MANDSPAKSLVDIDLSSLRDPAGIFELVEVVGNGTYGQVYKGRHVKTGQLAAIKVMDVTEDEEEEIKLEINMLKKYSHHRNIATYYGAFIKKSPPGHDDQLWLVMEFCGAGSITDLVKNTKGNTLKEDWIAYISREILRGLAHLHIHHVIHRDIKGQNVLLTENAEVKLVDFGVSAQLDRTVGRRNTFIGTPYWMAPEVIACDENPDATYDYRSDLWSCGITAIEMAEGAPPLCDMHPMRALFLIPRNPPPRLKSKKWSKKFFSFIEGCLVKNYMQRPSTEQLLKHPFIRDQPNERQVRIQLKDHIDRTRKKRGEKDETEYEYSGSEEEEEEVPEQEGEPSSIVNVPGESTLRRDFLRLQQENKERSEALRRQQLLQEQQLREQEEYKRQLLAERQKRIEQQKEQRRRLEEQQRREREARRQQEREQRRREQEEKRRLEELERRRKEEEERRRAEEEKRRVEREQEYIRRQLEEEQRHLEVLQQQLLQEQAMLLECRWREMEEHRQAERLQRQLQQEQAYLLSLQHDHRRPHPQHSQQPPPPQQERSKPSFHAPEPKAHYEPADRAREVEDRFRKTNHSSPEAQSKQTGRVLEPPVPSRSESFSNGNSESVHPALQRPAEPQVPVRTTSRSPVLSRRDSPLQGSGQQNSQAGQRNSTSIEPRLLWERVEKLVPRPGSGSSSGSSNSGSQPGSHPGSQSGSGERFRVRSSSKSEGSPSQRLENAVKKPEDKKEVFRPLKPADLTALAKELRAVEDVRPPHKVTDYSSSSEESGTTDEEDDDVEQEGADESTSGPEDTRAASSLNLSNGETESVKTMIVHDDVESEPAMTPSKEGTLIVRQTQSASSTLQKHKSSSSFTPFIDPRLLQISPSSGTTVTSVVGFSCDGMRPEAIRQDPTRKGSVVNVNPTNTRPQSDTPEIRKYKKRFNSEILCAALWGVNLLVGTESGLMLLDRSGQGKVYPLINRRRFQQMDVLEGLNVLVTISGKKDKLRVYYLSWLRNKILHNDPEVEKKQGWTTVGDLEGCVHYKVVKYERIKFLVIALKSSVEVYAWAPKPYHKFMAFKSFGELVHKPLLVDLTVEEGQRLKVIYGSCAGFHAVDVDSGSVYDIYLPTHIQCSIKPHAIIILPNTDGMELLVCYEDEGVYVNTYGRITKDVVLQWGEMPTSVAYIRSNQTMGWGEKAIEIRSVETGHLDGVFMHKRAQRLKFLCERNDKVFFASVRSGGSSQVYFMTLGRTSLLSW
T20 sequence (Q15418 whole entry, species assumed): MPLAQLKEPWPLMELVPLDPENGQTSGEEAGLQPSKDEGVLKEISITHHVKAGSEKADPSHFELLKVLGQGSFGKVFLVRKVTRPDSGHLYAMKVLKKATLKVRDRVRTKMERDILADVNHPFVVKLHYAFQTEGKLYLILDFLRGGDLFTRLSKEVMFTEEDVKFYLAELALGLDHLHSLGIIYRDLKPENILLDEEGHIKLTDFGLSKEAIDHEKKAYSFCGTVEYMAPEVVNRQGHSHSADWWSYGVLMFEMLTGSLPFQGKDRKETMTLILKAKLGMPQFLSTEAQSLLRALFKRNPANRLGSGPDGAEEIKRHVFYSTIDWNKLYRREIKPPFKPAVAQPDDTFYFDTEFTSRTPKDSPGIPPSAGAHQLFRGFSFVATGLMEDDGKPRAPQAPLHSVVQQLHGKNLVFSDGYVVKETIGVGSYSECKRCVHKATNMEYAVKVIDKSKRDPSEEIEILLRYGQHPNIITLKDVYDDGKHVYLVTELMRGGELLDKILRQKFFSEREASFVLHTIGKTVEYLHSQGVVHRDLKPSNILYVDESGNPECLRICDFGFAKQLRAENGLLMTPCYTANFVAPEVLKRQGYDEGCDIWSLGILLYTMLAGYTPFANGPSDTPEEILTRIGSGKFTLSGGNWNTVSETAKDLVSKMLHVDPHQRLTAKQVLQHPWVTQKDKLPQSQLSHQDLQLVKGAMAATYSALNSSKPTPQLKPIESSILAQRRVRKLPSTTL
T1 sequence (P53778 whole entry): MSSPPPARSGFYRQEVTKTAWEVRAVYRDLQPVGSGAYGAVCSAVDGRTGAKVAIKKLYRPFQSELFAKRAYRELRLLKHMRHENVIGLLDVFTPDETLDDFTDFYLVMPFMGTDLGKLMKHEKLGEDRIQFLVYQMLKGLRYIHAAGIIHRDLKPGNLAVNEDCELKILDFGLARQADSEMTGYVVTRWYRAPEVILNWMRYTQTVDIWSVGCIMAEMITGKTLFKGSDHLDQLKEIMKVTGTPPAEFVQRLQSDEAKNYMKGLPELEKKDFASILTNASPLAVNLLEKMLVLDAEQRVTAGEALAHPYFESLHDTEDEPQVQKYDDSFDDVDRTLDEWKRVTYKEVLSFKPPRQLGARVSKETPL
T22 sequence (O00141 whole entry, species assumed): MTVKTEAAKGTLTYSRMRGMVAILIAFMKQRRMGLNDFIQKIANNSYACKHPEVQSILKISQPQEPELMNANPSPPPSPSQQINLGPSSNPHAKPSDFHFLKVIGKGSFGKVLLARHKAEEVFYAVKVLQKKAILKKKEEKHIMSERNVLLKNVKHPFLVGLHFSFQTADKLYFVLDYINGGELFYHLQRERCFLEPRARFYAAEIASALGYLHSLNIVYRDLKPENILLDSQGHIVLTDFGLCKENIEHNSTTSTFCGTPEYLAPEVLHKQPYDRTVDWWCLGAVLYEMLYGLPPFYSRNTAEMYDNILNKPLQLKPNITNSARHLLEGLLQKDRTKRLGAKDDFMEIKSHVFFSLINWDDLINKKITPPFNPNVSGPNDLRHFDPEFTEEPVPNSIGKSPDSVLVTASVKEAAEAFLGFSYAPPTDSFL

SMILES	inhibition at 10 µM [1] [%]	inhibition at 10 µM [2] [%]	inhibition at 10 µM [3] [%]	inhibition at 10 µM [4] [%]	inhibition at 10 µM [5] [%]	inhibition at 10 µM [6] [%]	inhibition at 10 µM [7] [%]	inhibition at 10 µM [8] [%]	inhibition at 10 µM [9] [%]	inhibition at 10 µM [11] [%]	inhibition at 10 µM [12] [%]	inhibition at 10 µM [13] [%]	inhibition at 10 µM [14] [%]	inhibition at 10 µM [15] [%]	inhibition at 10 µM [16] [%]	inhibition at 10 µM [17] [%]	inhibition at 10 µM [18] [%]	inhibition at 10 µM [19] [%]	inhibition at 10 µM [20] [%]	inhibition at 10 µM [21] [%]	other results
CSc1sc(-c2cc[nH]n2)c2c1C(=O)CCC2 [Example 1, 3-(Methylsulfanyl)-1-(1H-pyrazol-3-yl)-6,7-dihydro-2-benzothiophen-4(5H)-one]	23.3	13.8	5.3	12.3	-4.4	2.8	11	-5.9	39.3	44.2	-2.4	9.1	7.4	7.2	-3.1	22.7	-0.8	0.1	9.5	9.5	inhibition at 10 µM [10]: 88.3%; inhibition at 10 µM [22]: -5.1%; inhibition at 10 µM [23]: 8.1%; pIC50 [24]: 6.72; inhibition at 10 µM [25]: 23.7%; inhibition at 10 µM [26]: 4.6%; inhibition at 10 µM [27]: -2%
CC1(C)CC(=O)c2c(SC3CCCC3)sc(-c3cc[nH]n3)c2C1 [Example 7, 3-(Cyclopentylsulfanyl)-6,6-dimethyl-1-(1H-pyrazol-3-yl)-6,7-dihydro-2-benzothiophen-4(5H)-one]	-0.2	3.9	4.7	-2.3	-11.1	-0.2	7.3	1.9	2.7	-4.2	-2.2	1.4	6	-2	2.2	8.4	-3.5	-1	3.3	-11.7	inhibition at 10 µM ([10]; LRRK2 (G2019S), tested at 10 uM): 78.3%; inhibition at 10 µM [22]: -1.3%; inhibition at 10 µM [23]: 1%; pIC50 [24]: 7.03; inhibition at 10 µM [25]: 8.2%; inhibition at 10 µM [26]: 2.4%; inhibition at 10 µM [27]: 1.9%
